Data taken from publication PMC8492656, “Machine learning-guided acyl-ACP reductase engineering for improved in vivo fatty alcohol production” (Nature Communications, 2021).

Target: T1, MA-ACR (parent A, A-AAAAAAAA) (Marinobacter nauticus, UniProt A1U3L3)
T1 construct: gene Maqu_2507; full-length two-domain enzyme (N-terminal AHR, C-terminal ATR), pET28, E. coli host, purified by the same method as His-tagged E. coli ACP; reported elsewhere as tetrameric
T1 sequence (A1U3L3 1-661): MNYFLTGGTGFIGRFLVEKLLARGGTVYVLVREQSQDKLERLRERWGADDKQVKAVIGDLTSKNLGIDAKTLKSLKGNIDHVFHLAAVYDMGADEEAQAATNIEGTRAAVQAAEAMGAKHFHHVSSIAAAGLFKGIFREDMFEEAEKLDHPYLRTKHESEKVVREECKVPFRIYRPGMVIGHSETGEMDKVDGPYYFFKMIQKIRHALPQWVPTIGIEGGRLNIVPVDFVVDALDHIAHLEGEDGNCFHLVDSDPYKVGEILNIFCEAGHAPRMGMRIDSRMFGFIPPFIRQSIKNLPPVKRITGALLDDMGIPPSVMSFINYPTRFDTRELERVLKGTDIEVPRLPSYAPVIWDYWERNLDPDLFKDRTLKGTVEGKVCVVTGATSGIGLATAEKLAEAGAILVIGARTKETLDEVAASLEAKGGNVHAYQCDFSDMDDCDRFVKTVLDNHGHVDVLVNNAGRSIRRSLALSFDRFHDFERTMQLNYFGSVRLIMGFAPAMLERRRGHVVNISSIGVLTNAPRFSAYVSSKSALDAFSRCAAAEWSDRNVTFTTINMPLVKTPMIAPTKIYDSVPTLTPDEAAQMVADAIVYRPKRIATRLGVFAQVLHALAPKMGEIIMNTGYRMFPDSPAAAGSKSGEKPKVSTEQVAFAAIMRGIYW
Test: DTNB release assay, A412, 96-well plate
Assay type: biochemical
Conditions: 200 µM NADPH, 1 µM enzyme, 250-252 µM DTNB, 20 mM Tris, 50 mM NaCl, pH 7

CCCCCCCCCCCCCCCC(=O)SCCNC(=O)CCNC(=O)[C@H](O)C(C)(C)COP(=O)(O)OP(=O)(O)OC[C@H]1O[C@@H](n2cnc3c(N)ncnc32)[C@H](O)[C@@H]1OP(=O)(O)O [palmitoyl-CoA]
DTNB release assay, A412, 96-well plate: ATR-83 has a lower activity than the parents on palmitoyl-CoA
